Experimental data as given in patent publication US8207188B2, “Treatment of diseases modulated by a H4 receptor agonist” (priority 2006, dated 2012).
“And” between values parts separate entries of the source, which are not always exact repeats. Equal values may be shown once. “Also recorded” adds a separate entry of the source.

Tests used:
H4R = biological target: T1, H4R (Mus musculus, UniProt Q91ZY2); assay: Cell cycle status after H4R silencing with siRNA; format: cell-based; settings: 10 μM; H4R siRNA transfected c-kit+ cells
T1 construct: endogenous in cells; host or cells: freshly sorted c-kit+ haematopoietic progenitor cells
T1 sequence (Q91ZY2 1-391): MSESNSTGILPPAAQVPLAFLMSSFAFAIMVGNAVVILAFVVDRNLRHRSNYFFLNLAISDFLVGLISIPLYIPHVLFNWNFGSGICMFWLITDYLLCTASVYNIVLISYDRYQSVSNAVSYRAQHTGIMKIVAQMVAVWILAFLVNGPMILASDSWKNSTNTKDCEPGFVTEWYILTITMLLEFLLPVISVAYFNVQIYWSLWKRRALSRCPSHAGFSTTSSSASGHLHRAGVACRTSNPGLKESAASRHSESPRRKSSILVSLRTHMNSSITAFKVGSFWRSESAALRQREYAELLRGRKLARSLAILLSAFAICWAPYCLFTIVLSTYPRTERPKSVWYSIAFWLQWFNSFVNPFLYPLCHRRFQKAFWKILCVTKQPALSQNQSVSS
Method: H4R silencing was performed with freshly sorted c-kit^+ cells. For transfection, 3 μl of HiPerFect reagent (Qiagen; Courtaboeuf, France) and 4 μl ([…]) of human and 8 μl (80 pmol) of murine H4R siRNA, scrambled FITC-labeled or unconjugated control siRNAs (all from Santa Cruz Biotechnology) were incubated in 50 μl x-vivo medium (Cambrex; East Rutherford, N.J.) for 20 min at room temperature. The mixture was then added to 50 μl of cell suspension at a final concentration of 10^6 cells/ml and incubated for 20 h, when transfection efficiency was verified with scrambled FITC-conjugated siRNA. Cells were then centrifuged and resuspended at a concentration of 10^5 cells/ml in StemSpan medium with growth factor cocktail. The extinction of H4R protein expression was ascertained by FACS analysis after 24 h. After 3 days of culture with or without tritoqualine (10 μM) or Clobenpropit (10 μM) cells were counted and their viability was assessed by trypan blue exclusion. The cell cycle status was assessed after an overnight incubation.

c-kit+ BM cells = assay: Cell cycle status of c-kit+ BM cells with pertussis toxin; format: cell-based, murine; settings: 10 μM, 2 h
Method: Progenitor-enriched murine c-kit^+ BM or cord blood-derived CD34^+ cells were prepared by positive magnetic selection, suspended at a final concentration of 10^5 per ml in serum-free StemSpan medium (StemCell Technologies) and cultured up to 3 days in the presence of 10 ng of IL-3, 10 ng of IL-6 and 50 ng of SCF (Stem Cell Factor) per ml, with or without Clobenpropit (10^−5 M), Tritoqualine or both.
Magnetically sorted c-kit^+ BM cells were incubated for 2 h in StemSpan medium with growth factor cocktail alone or in the presence of 10^−5 M Clobenpropit, Tritoqualine or enantiomers. The cell cycle status was then assessed using Vybrant DyeCycle Violet (VDV) Stain (Invitrogen), according to the manufacturer's instructions.
The effect of Bordetella pertussis toxin (PTX; 100 ng/ml), an inhibitor of Gi/o coupling to the H4R, on the cell cycle arrest promoted by receptor activation was evaluated in the same conditions. After incubation, cells were analyzed using FlowJo software.

[1] = test system: hematopoietic progenitor cells; assay: CFU of hematopoietic progenitor cells in the presence of Ara-C; format: cell-based; settings: listed as TRQ
Text: Ara-C is a chemotherapeutic agent that kills cancel cells (or actively dividing cells).

[2] = Spirometry parameter FEV1 in COPD patients; format: in vivo, human; design: T0 (initial visit) FEV1: unit not given here
Method: At the initial visit to the physician (T0), the patients were examined and the spirometry parameter FEV1 was recorded. Tritoqualine 200 mg/day were added to the patient's existing drug therapy. […] During each visit the patient's overall health and the FEV1 parameter was assessed by spirometry. […]

[3] = Reintroduction of causal food allergen in food allergy patients; format: in vivo, human; settings: baseline patients treated with one drug alone
Text: Allergens tested came from either […], or ALLERBIO.
The direct test with the Nutella® was strongly positive for allergy. This patient was hospitalized in two occasions for the same dramatic allergic reaction to Nutella® spread. Furthermore, the patient presented allergies to pneumoallergens.
Continuation of the above treatment for over 8 months afforded reversal of allergic and digestive symptoms due to food allergy.
The patient under study had survived two cases of anaphylactic shock due to ingestion of shrimps. […] Later the patient was able to ingest five shrimps without any local signs and no global reaction.
Baseline patients had signs of food allergies and the food allergy symptoms were not adequately managed with an H1 antagonist and cromoglycate. A group of 15 patients presenting signs of food allergies is tested with allergens such as the following: peanut, milk, tomato, potato, flour of wheat, soybean, fish, and shrimp. Allergens tested came from either […], or ALLERBIO.
All patients had history of hospitalization and reactions such as Quincke's edema and asthma crisis. Most of the causal allergens were peanut (six patients), egg (four patients) and soybean (five patients) of them (with other several positive food allergens at different degrees of reaction). […]

Q: What does the source list for `CCOc1c(N)c2c(c(OCC)c1OCC)[C@@H]([C@@H]1c3c(cc4c(c3OC)OCO4)CCN1C)OC2=O` [E2]?
A: activity inhibiting the cell cycle at the G0/G1 phase after H4R siRNA (H4R): reversed; H4R agonist activity (percentage of cells at the G0/G1 phase) (c-kit+ BM cells): H4R agonist activity similar to the one of CB

Q: With `CCOc1c(N)c2c(c(OCC)c1OCC)C(C1c3c(cc4c(c3OC)OCO4)CCN1C)OC2=O` (racemic) [Tritoqualine, 7-Amino-4,5,6-triethoxy-3-(5,6,7,8-tetrahydro-4-methoxy-6-methyl-1,3-dioxolo[4,5-g]isoquinolin-5-yl) phthalide] as the molecule, how does the “protection of cells / cell CFU in the presence of Ara-C” value [1] read?
A: The value was “provides protection to the cells; also recorded: cell CFU remains high”.

Q: And the “T0 (initial visit) FEV1” value ([2]; Example 12, 13 COPD patients, one line per patient, baseline before Tritoqualine)?
A: The value was 1.00 (2×) and 2.39 and 1.86 (2×) and 1.60 and 1.53 and 1.64 and 1.32 and 0.82 and 0.58 and 2.28 and 1.30.

Q: And the “improvement of FEV1 from visit T0 to T1 (paired t-test)” value ([2]; Example 12, 13 patients, P=0.0012)?
A: Its value is “statistically significant improvement”.

Q: And the “Mean, Visit T1” value ([2]; Example 12, N 13, 6-8 weeks of Tritoqualine 200 mg/day, FEV1 relative to expected normal value)?
A: Its value is 77.69.

Q: What about the “Mean, Visit T0” value ([2]; Example 12, N 13, baseline, FEV1 relative to expected normal value) of the same molecule?
A: Its value is 65.3.

Q: And the “FEV1 as percent of expected normal value” ([2]; Example 12, per patient, 6-8 weeks of Tritoqualine 200 mg/day)?
A: The value was 50.76% and 97.74% and 85.50% and 71.77% and 92.96% and 72.24% and 87.41% and 64.90% and 68.42% and 43.53% and 88.24% and 88.89% and 105.12%.

Q: And the “FEV1 as percent of expected normal value” ([2]; Example 12, per patient, baseline)?
A: Its value is 50.76% and 89.85% and 47.33% and 76.56% and 71.83% and 62.36% and 74.07% and 53.88% and 53.95% and 34.12% and 83.82% and 72.22% and 86.51%.

Q: What about the “T2 (6-8 weeks follow-up visit) FEV1 normalized” value ([2]; Example 12, per patient, Tritoqualine 200 mg/day added to existing therapy) of the same molecule?
A: Its value is 1.00 and 2.60 and 3.36 and 1.50 and 1.98 and 1.90 and 1.18 and 1.59 and 1.04 and 0.74 and 2.40 and 1.60 and 2.26.

Q: And the “management of food allergy symptoms with the single drug” value [3]?
A: The value was “did not yield satisfactory management”.

Q: For `CCOc1c(N)c2c(c(OCC)c1OCC)[C@H]([C@H]1c3c(cc4c(c3OC)OCO4)CCN1C)OC2=O` [E1], which “activity inhibiting the cell cycle at the G0/G1 phase after H4R siRNA” value (H4R) is on record?
A: The value was “reversed”.

Q: What about the “H4R agonist activity (percentage of cells at the G0/G1 phase)” value (c-kit+ BM cells) of the same molecule?
A: Its value is “H4R agonist activity similar to the one of CB”.
